Data as given in the supplement of paper PMC13380429.

Legend:
Conditions in all cases: 72 h
HepG2 [1] = assay: cell viability relative to DMSO; higher = less toxic
Calu-3 [2] = assay: as above
Vero E6 [3] = assay: as above
U2OS [4] = assay: as above
Caco-2 [5] = assay: as above
HepG2 [6] = assay: relative viability EC50 (midpoint between 100% and the lowest measured viability); higher = less toxic
Calu-3 [7] = assay: as above
Vero E6 [8] = assay: as above
U2OS [9] = assay: as above
Caco-2 [10] = assay: as above
HepG2 [11] = assay: drug sensitivity score (DSS) for viability; higher = more toxic; extreme values may be limits of the assay
Calu-3 [12] = assay: as above
Vero E6 [13] = assay: as above
U2OS [14] = assay: as above
Caco-2 [15] = assay: as above

| SMILES | cell viability (HepG2 [1]; 1 nM) [%] | cell viability (HepG2 [1]; 10 nM) [%] | cell viability (HepG2 [1]; 100 nM) [%] | cell viability (HepG2 [1]; 1000 nM) [%] | cell viability (HepG2 [1]; 10000 nM) [%] | cell viability (Calu-3 [2]; 1 nM) [%] | cell viability (Calu-3 [2]; 10 nM) [%] | cell viability (Calu-3 [2]; 100 nM) [%] | cell viability (Calu-3 [2]; 1000 nM) [%] | cell viability (Calu-3 [2]; 10000 nM) [%] | cell viability (Vero E6 [3]; 1 nM) [%] | cell viability (Vero E6 [3]; 10 nM) [%] | cell viability (Vero E6 [3]; 100 nM) [%] | cell viability (Vero E6 [3]; 1000 nM) [%] | cell viability (Vero E6 [3]; 10000 nM) [%] | cell viability (U2OS [4]; 1 nM) [%] | cell viability (U2OS [4]; 10 nM) [%] | cell viability (U2OS [4]; 100 nM) [%] | cell viability (U2OS [4]; 1000 nM) [%] | cell viability (U2OS [4]; 10000 nM) [%] | cell viability (Caco-2 [5]; 1 nM) [%] | cell viability (Caco-2 [5]; 10 nM) [%] | cell viability (Caco-2 [5]; 100 nM) [%] | cell viability (Caco-2 [5]; 1000 nM) [%] | cell viability (Caco-2 [5]; 10000 nM) [%] | relative viability EC50 (HepG2 [6]) [µM] | relative viability EC50 (Calu-3 [7]) [µM] | relative viability EC50 (Vero E6 [8]) [µM] | relative viability EC50 (U2OS [9]) [µM] | relative viability EC50 (Caco-2 [10]) [µM] | drug sensitivity score (HepG2 [11]) | drug sensitivity score (Calu-3 [12]) | drug sensitivity score (Vero E6 [13]) | drug sensitivity score (U2OS [14]) | drug sensitivity score (Caco-2 [15]) |
| --- | --- | --- | --- | --- | --- | --- | --- | --- | --- | --- | --- | --- | --- | --- | --- | --- | --- | --- | --- | --- | --- | --- | --- | --- | --- | --- | --- | --- | --- | --- | --- | --- | --- | --- | --- |
| C=CCc1ccc(O)c(-c2cc(CC=C)ccc2O)c1 [magnolol] | 97.8 | 85.7 | 97.8 | 102 | 106 | 99.3 | 90.3 | 90.3 | 99.4 | 110 | 98.6 | 98.3 | 98.9 | 101 | 94.8 | 96.7 | 102 | 99.2 | 102 | 95.3 | 104 | 95.3 | 88.6 | 102 | 89.5 | > 10 | > 10 | > 10 | > 10 | > 10 | 0 | 0 | 0 | 0 | 0 |
| CNC(=O)c1c(C)oc2cc(Oc3ncnc4cc(OC)c(OC)cc34)ccc12 [fruquintinib] | 107 | 109 | 100 | 86.5 | 103 | 103 | 103 | 98.7 | 107 | 98.8 | 96.1 | 93.4 | 102 | 94.5 | 91.6 | 102 | 104 | 102 | 102 | 90.8 | 90 | 97.4 | 97.8 | 98.9 | 94.7 | > 10 | > 10 | > 10 | > 10 | > 10 | 0 | 0 | 0 | 0 | 0 |
| CCCCCCCCCCCCCCCCCCOP(=O)([O-])OC1CC[N+](C)(C)CC1 [perifosine] | 96.2 | 96 | 97.7 | 106 | 112 | 106 | 98 | 106 | 86.8 | 95.4 | 92.7 | 98.9 | 93.6 | 96.5 | 101 | 98.7 | 95.2 | 103 | 95 | 99.2 | 96.4 | 90.9 | 100 | 96.5 | 106 | > 10 | > 10 | > 10 | > 10 | > 10 | 0 | 0.8 | 0 | 0 | 0 |
| CCOC(=O)c1c(CSc2ccccc2)n(C)c2cc(Br)c(O)c(CN(C)C)c12 [arbidol] | 96 | 104 | 108 | 104 | 97.2 | 94.5 | 96.7 | 96 | 96.8 | 81.6 | 92.9 | 96.6 | 92 | 104 | 101 | 98.3 | 92.8 | 96.8 | 92.4 | 93.8 | 94.9 | 88.1 | 94.4 | 96.7 | 88.2 | > 10 | > 10 | > 10 | > 10 | > 10 | 0 | 0.9 | 0 | 0 | 0 |
| CCCCCCCCCCCCCCCC[n+]1ccccc1 [cetylpyridinium] | 106 | 95.4 | 89.2 | 58.2 | 14.6 | 104 | 99.9 | 105 | 84.3 | 44.1 | 96.2 | 97.5 | 98.1 | 91.6 | 19.2 | 103 | 102 | 104 | 80.9 | 10.1 | 103 | 99 | 101 | 66.4 | 16.5 | 0.929 | 1.46 | 2.3 | 1.68 | 1.17 | 9.8 | 5.4 | 5.9 | 8 | 9.1 |
| Cc1cnc(-c2cc(N3CCN(C(=O)CCS(C)(=O)=O)CC3)ncc2Cl)c(C)c1 | 99.9 | 93.2 | 98.6 | 101 | 113 | 104 | 105 | 92.8 | 110 | 109 | 94.5 | 93.4 | 95.4 | 95.3 | 102 | 92.1 | 101 | 98.1 | 105 | 101 | 103 | 90.2 | 102 | 99.1 | 106 | > 10 | > 10 | > 10 | > 10 | > 10 | 0 | 0 | 0 | 0 | 0 |
| CC(Cc1ccc(O)cc1)NCC(O)c1cc(O)cc(O)c1 (stereo not given) [fenoterol] | 84.4 | 92.7 | 94 | 93.8 | 82.9 | 103 | 114 | 105 | 95.9 | 103 | 97.6 | 108 | 96.7 | 103 | 92.1 | 101 | 95.1 | 96.4 | 98.5 | 98.4 | 124 | 99.3 | 103 | 92.4 | 111 | > 10 | > 10 | > 10 | > 10 | > 10 | 0 | 0 | 0 | 0 | 0 |
